Laboratory results published in article PMC9866366 (Pharmaceutics, 2023).
Square brackets hold non-standard residues; d marks the D form. Peptide text beside a SMILES is read from it. * marks the point of attachment. Alaψ(CH2NMeCH2CH2OH) = C[C@@H](CN(C)CCO)N*; Decanoyl(2R-Me) = CCCCCCCC[C@@H](C)C(=O)*; Cha = N[C@@H](CC1CCCCC1)C(=O)O; Aib = CC(C)(N)C(=O)O

Legend:
PANC-1 cells [1] = experiment: CyQUANT Direct cell proliferation assay, comparative cytotoxicity assay under 'low glucose'; assay type: cell-based, human; conditions: 24 h exposure
Text: (§1) Endpoint fluorescence was quantified as described above.

BxPC-3 cells [2] = experiment: as above; assay type: cell-based, human; conditions: 24 h exposure
Text: as §1

BxPC-3 cells [3] = experiment: Initial cytotoxicity assay (PrestoBlue and CyQUANT Direct Confirmation Assay), 25 mM glucose; assay type: cell-based, human; conditions: 3-day (72 h) incubation, RPMI-1640 with 25 mM glucose, up to highest concentration tested of 1 µM, both viability assays
Procedure: The CyQUANT™ Direct Cell Proliferation Assay was subsequently performed by mixing the CyQUANT™ Direct nucleic acid stain, CyQUANT™ Direct background suppressor I, and PBS (pH 7.4) as per the vendor instructions, then adding 100 µL of this mixture into each well. The plate was returned into the incubator for a further 1 h, and the endpoint fluorescence bottom-read at the Ex/Em wavelength of 485/538 nm on the SpectraMax iD3 plate reader. Blank wells (medium only) and two negative controls—(1) cells + medium, (2) cells + medium + 0.3% v/v DMSO (equivalent to 1 µM peptide)—were set up in the plate for each experiment.

PANC-1 cells [4] = experiment: PrestoBlue cell viability assay, comparative cytotoxicity assay under 'low glucose'; assay type: cell-based, human; conditions: 24 h exposure
Text: as §1

BxPC-3 cells [5] = experiment: as above; assay type: cell-based, human; conditions: 24 h exposure
Text: as §1

PANC-1 cells [6] = conditions: 24 h exposure, medium with or without 5 mM glucose, up to 9 µM
Procedure: (§2) Cells were seeded at a density of 25,000 cells/well (BxPC-3) and 30,000 cells/well (PANC-1) in Nunc MicroWell 96-Well Black Optical-Bottom Plates with Polymer Base (total volume: 100 µL). Cells were first incubated overnight at 37 °C, 5% CO2 to permit adherence, after which the medium in each well was aspirated, briefly washed once with 100 µL/well of PBS (pH 7.4) and replaced with 100 µL of either RPMI 1640 (BxPC-3, #11879020) or DMEM (PANC-1, #11966025) supplemented with or without 5 mM glucose to create the ‘normal glucose’ and ‘low glucose’ media, respectively. This 5 mM glucose concentration was selected to reflect the physiological concentration of glucose in plasma. Each well was then exposed to the peptides in duplicate at a concentration range of 50.8 pM to 1 µM (BxPC-3) or 457 pM to 9 µM (PANC-1) for 24 h (threefold serial dilution in the corresponding ‘normal glucose’ or ‘low glucose’ media, ten steps). Endpoint fluorescence was quantified as described above.
(§3) Blank correction (wells containing medium only) was first performed on the raw fluorescence–concentration data from the plate reader. Cell viability was then calculated as a percentage by normalizing to the fluorescence of the wells containing the lowest drug concentration (50.8 pM for BxPC-3, 457 pM for PANC-1). The resulting data from three independent experiments (each in technical duplicate) was then plotted on GraphPad Prism 9 and analyzed using the built-in ‘[Inhibitor] vs. response—Variable slope (four parameters)’ equation.

BxPC-3 cells [7] = conditions: 24 h exposure, medium with or without 5 mM glucose, up to 1 µM
Procedure: as §2, §3

[8] = test system: MDA-MB-468 human breast cancer cells; conditions: via inhibition of the mTOR signaling pathway; cited from earlier work
Text: (§4) Over the last decade, research in our group has focused on the synthesis and biological evaluation of aminolipopeptides as new generation anticancer therapeutics. They are structurally defined by the α,α-dialkylated amino acid 2-aminoisobutyric acid (Aib) and an acylated N-terminus. A subset of this family, containing the non-natural building block 2-amino-6-hydroxy-4-methyl-8-oxodecanoic acid (AHMOD), has provided two promising leads in leucinostatin A (1) and culicinin D (2).

[9] = test system: DU-145 human prostate cancer cells; conditions: coculture model with prostate stromal cells (PrSC); cited from earlier work
Text: as §4

BxPC-3 = conditions: MTT assay; only when cultured under minimal glucose in the growth medium; cited from earlier work
Text: (§5) Intriguingly, there exists a precedence for this observation: the recent discovery of the leucinostatin Y by Kawada’s group was also reported alongside a comparative […] (MTT) assay against the parent peptide leucinostatin A (1) on the human PDAC cell lines PANC-1, BxPC-3, PSN-1, and PK-8 [21]. […] On this basis, we opted to re-evaluate the cytotoxicity of both trichoderins (3) and (4) against BxPC-3 and ...

PSN-1 = conditions: MTT assay; only when cultured under minimal glucose in the growth medium; cited from earlier work
Text: as §5

PK-8 = conditions: MTT assay; only when cultured under minimal glucose in the growth medium; cited from earlier work
Text: as §5

PANC-1 = conditions: MTT assay; only when cultured under minimal glucose in the growth medium; cited from earlier work
Text: as §5

[10] = 'low glucose' DMEM (no glucose added), 457 pM to 9 µM, three independent experiments each in technical duplicate
[11] = 'low glucose', area under viability-concentration curve, baseline y = 0, three independent experiments in duplicate
[12] = 'low glucose', response (percent viability) at highest concentration 9 µM, three independent experiments in duplicate
[13] = 'low glucose' RPMI 1640 (no glucose added), 50.8 pM to 1 µM, three independent experiments each in technical duplicate
[14] = 'low glucose', response (percent viability) at highest concentration 1 µM, three independent experiments in duplicate

With `CCCCCCCC[C@@H](C)C(=O)N1CCC[C@H]1C(=O)N[C@@H](CC1CCCCC1)C(=O)NC(C)(C)C(=O)NC(C)(C)C(=O)N[C@H](C(=O)N[C@H](C(=O)NC(C)(C)C(=O)NC(C)(C)C(=O)N[C@@H](C)CN(C)CCO)C(C)C)[C@@H](C)CC` [(4)] ({Decanoyl(2R-Me)}-P[Cha][Aib][Aib]IV[Aib][Aib]-{Alaψ(CH2NMeCH2CH2OH)}) the IC50 (PANC-1 cells [1]; [10]) was 1300 nM, the “AUC, CyQUANT Direct, PANC-1” value (PANC-1 cells [1]; [11]) was 39.6 ×10^−5 and the “Emax @ 9 µM, CyQUANT Direct, PANC-1” value (PANC-1 cells [1]; [12]) was 29.2%. The IC50 (BxPC-3 cells [2]; [13]) was 400 nM, the “AUC, CyQUANT Direct, BxPC-3” value (BxPC-3 cells [2]; [11]) was 5.4 ×10^−5 and the “Emax @ 1 µM, CyQUANT Direct, BxPC-3” value (BxPC-3 cells [2]; [14]) was 21.0%. For the same molecule, the “Inhibition of proliferation of BxPC-3 cells (in words)” value (BxPC-3 cells [3]) was “only partially inhibited the proliferation”, the IC50 (PANC-1 cells [4]; [10]) was 500 nM and the “AUC, PrestoBlue, PANC-1” value (PANC-1 cells [4]; [11]) was 23.1 ×10^−5. The “Emax @ 9 µM, PrestoBlue, PANC-1” value (PANC-1 cells [4]; [12]) was 2.3%, the IC50 (BxPC-3 cells [5]; [13]) was 400 nM and the “AUC, PrestoBlue, BxPC-3” value (BxPC-3 cells [5]; [11]) was 5.1 ×10^−5. For the same molecule, the “Emax @ 1 µM, PrestoBlue, BxPC-3” value (BxPC-3 cells [5]; [14]) was 1.7%, the “Cytotoxicity against PANC-1 under 'low glucose' vs 'normal glucose' (in words)” value (PANC-1 cells [6]) was “selective toxicity under the ‘low glucose’ condition” and the “Cytotoxicity against BxPC-3 under 'low glucose' vs 'normal glucose' (in words)” value (BxPC-3 cells [7]) was “selective toxicity under the ‘low glucose’ condition”.

For culicinin D [(2)], the “Toxicity against MDA-MB-468 (in words)” value [8] is given as “selectively toxic”.

For leucinostatin A [(1)], the “Cytotoxicity against DU-145 (in words)” value [9] is listed as “cytotoxic”, the “Cytotoxicity against BxPC-3 (in words)” value (BxPC-3) is listed as “selectively cytotoxic” and the “Cytotoxicity against PSN-1 (in words)” value (PSN-1) is listed as “selectively cytotoxic”. The “Cytotoxicity against PK-8 (in words)” value (PK-8) was “selectively cytotoxic” and the “Cytotoxicity against PANC-1 (in words)” value (PANC-1) was “selectively cytotoxic”.
